ChEMBL document CHEMBL3045349, “A comparative study on the interference of two herbicides in wheat and italian ryegrass and on their antioxidant activities and detoxification rates” (J Agric Food Chem, 2011)

Tests used:
Shoot [1] = assay: Drug level in Triticum aestivum (wheat) shoots compound administered at rate of 14 mf/flat measured 144 hr post treatment by HPLC; type: ADME
Lolium multiflorum [2] = assay: Effect on antioxidant enzyme system in Lolium multiflorum (Italian ryegrass) shoots assessed as glutathione S-transferase activity per mg protein compound administered at rate of 14 mf/flat measured 48 hr post treatment (reference value: 0.37 nmol/s per mg protein); type: functional
Triticum aestivum [3] = assay: Effect on antioxidant enzyme system in Triticum aestivum (wheat) shoots assessed as glutathione reductase activity per mg protein compound administered at rate of 14 mf/flat measured 24 hr post treatment (reference value: 1.1 nmol/s per mg protein); type: functional
Lolium multiflorum [4] = assay: Effect on antioxidant enzyme system in Lolium multiflorum (Italian ryegrass) shoots assessed as dehydroascorbate reductase activity per mg protein compound administered at rate of 14 mf/flat measured 24 hr post treatment (reference value: 3.9 nmol/s per mg protein); type: functional
Lolium multiflorum [5] = assay: Effect on photosynthetic activity in Lolium multiflorum (Italian ryegrass) shoots assessed as leaf net photosynthesis rate measured by CO2 production compound administered at rate of 14 mf/flat measured 24 hr post treatment (reference value: 4.55 umol/m2/s); type: functional
Shoot [6] = assay: Drug level in Lolium multiflorum (Italian ryegrass) shoots compound administered at rate of 14 mf/flat measured 24 hr post treatment by HPLC; type: ADME
Lolium multiflorum [7] = assay: Increase in MDA content in Lolium multiflorum (Italian ryegrass) shoots compound administered at rate of 14 mf/flat measured 24 hr post treatment; type: functional
Triticum aestivum [8] = assay: Reduction in glutathione S-transferase activity in Triticum aestivum (wheat) shoots compound administered at rate of 14 mf/flat measured 48 hr post treatment; type: functional; set-up: scale not given: the % may be the effect or the level left
Triticum aestivum [9] = assay: Effect on antioxidant enzyme system in Triticum aestivum (wheat) shoots assessed as catalase activity per mg protein compound administered at rate of 14 mf/flat measured 72 hr post treatment (reference value: 0.13 nmol/s per mg protein); type: functional
Triticum aestivum [10] = assay: Effect on antioxidant enzyme system in Triticum aestivum (wheat) shoots assessed as catalase activity per mg protein compound administered at rate of 14 mf/flat measured 48 hr post treatment (reference value: 0.12 nmol/s per mg protein); type: functional
Lolium multiflorum [11] = assay: Increase in antioxidant enzyme system in Lolium multiflorum (Italian ryegrass) shoots assessed as increase in ascorbate peroxidase activity compound administered at rate of 14 mf/flat measured 24 hr post treatment; type: functional
Triticum aestivum [12] = assay: Effect on photosynthetic activity in Triticum aestivum (wheat) shoots assessed as dark respiration rate measured by CO2 production compound administered at rate of 14 mf/flat measured 72 hr post treatment (reference value: -1.07 umol/m2/s); type: functional
Triticum aestivum [13] = assay: Effect on photosynthetic activity in Triticum aestivum (wheat) shoots assessed as dark respiration rate measured by CO2 production compound administered at rate of 14 mf/flat measured 48 hr post treatment (reference value: -1.43 umol/m2/s); type: functional
Lolium multiflorum [14] = assay: Increase in antioxidant enzyme system in Lolium multiflorum (Italian ryegrass) shoots assessed as increase in dehydroascorbate reductase activity compound administered at rate of 14 mf/flat measured 48 hr post treatment; type: functional
Lolium multiflorum [15] = assay: Increase in antioxidant enzyme system in Lolium multiflorum (Italian ryegrass) shoots assessed as increase in ascorbate peroxidase activity compound administered at rate of 14 mf/flat measured 72 hr post treatment; type: functional

SMILES	Drug uptake (Shoot [1]) [ppm]	Activity (Lolium multiflorum [2]) [nmol/s/mg protein]	Activity (Triticum aestivum [3]) [nmol/s/mg protein]	Activity (Lolium multiflorum [4]) [nmol/s/mg protein]	Activity (Lolium multiflorum [5]) [micromol/m2/s]	Drug uptake (Shoot [6]) [ppm]	Activity (Lolium multiflorum [7]) [%]	Activity (Triticum aestivum [8]) [%]	Activity (Triticum aestivum [9]) [nmol/s]	Activity (Triticum aestivum [10]) [nmol/s]	Activity (Lolium multiflorum [11]) [%]	Activity (Triticum aestivum [12]) [micromol/m2/s]	Activity (Triticum aestivum [13]) [micromol/m2/s]	Activity (Lolium multiflorum [14]) [%]	Activity (Lolium multiflorum [15]) [%]
CCNc1nc(Cl)nc(NC(C)C)n1 [ATRAZINE]	0.35	0.46	1.5	4.5	-0.61	6	25	26	0.12	0.11	20	–	–	–	–
O=[N+]([O-])c1ccc(Oc2ccc(C(F)(F)F)cc2[N+](=O)[O-])cc1 [FLUORODIFEN]	–	0.5	1.5	4.2	4.64	1.4	–	–	0.14	0.12	11	-0.94	-0.77	19	21
